Assay results published in patent US11530196B2, “Pyrimidine compound acting on EGFR and ERBB2” (CHINA RESOURCES PHARMACEUTICAL HOLDINGS COMPANY LIMITED, priority 2019, dated 2022).

Key:
[1] = system: non-small cell lung cancer with EGFR and HER2 exon 20 insertion mutation; details: clinical reports, NSCLC with EGFR and HER2 exon 20 insertion mutation; cited from earlier work
[2] = biological target: Ba/F3 EGFR-D770_N771insSVD (Homo sapiens, UniProt P00533, DUP768-770, cells depend on it); test: Anti-proliferation against Ba/F3 exon 20 insertion mutant cells (SVD); type: cell-based, mouse; details: CTG, 72 hours, read-out: Mutant cells IC50 (anti-proliferation)
Chain of Ba/F3 EGFR-D770_N771insSVD (P00533 with tags, fused parts or gaps DUP768-770): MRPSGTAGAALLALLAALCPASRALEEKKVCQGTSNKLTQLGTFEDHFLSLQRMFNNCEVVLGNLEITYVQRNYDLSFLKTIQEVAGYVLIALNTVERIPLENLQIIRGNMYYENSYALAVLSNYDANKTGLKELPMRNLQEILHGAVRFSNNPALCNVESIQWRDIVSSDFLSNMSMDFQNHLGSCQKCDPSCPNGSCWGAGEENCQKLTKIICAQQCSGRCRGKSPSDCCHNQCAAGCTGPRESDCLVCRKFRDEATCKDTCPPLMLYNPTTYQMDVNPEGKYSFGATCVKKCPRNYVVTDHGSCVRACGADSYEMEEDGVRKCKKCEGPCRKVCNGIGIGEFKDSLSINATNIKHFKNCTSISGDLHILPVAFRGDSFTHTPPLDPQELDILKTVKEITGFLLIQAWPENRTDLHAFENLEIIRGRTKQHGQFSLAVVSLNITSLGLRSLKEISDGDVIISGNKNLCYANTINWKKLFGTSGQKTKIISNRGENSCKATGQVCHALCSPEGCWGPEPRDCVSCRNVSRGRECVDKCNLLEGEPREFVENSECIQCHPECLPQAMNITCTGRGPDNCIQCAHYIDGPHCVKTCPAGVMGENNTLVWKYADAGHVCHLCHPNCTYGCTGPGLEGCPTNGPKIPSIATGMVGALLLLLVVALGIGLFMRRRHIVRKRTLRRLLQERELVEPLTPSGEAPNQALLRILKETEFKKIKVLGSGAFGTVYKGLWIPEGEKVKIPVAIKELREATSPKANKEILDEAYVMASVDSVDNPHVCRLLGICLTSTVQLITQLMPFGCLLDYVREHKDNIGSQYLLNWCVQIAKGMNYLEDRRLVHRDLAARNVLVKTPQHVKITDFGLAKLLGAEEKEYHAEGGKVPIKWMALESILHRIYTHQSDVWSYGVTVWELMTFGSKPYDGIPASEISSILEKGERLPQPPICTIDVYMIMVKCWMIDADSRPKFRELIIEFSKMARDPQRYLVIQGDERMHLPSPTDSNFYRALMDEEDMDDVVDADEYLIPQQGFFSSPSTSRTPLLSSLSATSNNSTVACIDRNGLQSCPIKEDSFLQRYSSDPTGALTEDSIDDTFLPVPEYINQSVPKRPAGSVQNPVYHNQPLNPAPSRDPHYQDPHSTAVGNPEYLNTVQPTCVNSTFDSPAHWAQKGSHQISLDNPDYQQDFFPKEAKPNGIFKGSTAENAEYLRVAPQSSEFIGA
Source text: RPMI1640 medium was purchased from Hyclone, FBS fetal bovine serum was purchased from GBICO, and trypsin-EDTA were both purchased from Giboco. DPBS was purchased from Corning, penicillin/streptomycin solution was purchased from Hyclone, and Cell-Titer Glo reagent was purchased from Promega (Cat. No. G7572). Ba/F3 EGFR-D770_N771insSVD, Ba/F3 EGFR-H773_V774insNPH, Ba/F3 EGFR-V769_D770insASV, BaF3 ERBB2 A775_G776 ins YVMA, the cell lines were constructed by Beijing Kang Yuan Bochuang Biotechnology Co., Ltd. Plate reading instrument: Envision (PerkinElmer).
Cells in logarithmic growth phase were harvested and cell counts were performed using a […]. Cell viability was detected by the Taipan Blue rejection assay. The cell concentration was adjusted; the cell suspension was added to a 96-well plate separately. Cells in 96-well plates were incubated overnight at 37° C., 5% CO2, and 95% humidity. To prepare the drug solution, 10 μL of drug solution was added to each well of the 96-well plate inoculated with cells, and three replicate wells were set up for each drug concentration. The cells in the 96-well plates added with drugs were placed at 37° C., 5% CO2, 95% humidity and continued to incubate for 72 hours, after which CTG analysis was performed and the cells were vibrated on an orbital shaker to lyse the cells. The cell plate was placed at room temperature to stabilize the cold light signal, and the cold light values were read. The data were analyzed using GraphPad Prism 7.0 software, and a nonlinear S-curve regression was used to fit the data to derive the dose-effect curve from which the IC50 values were calculated.
The IC50 of anti-proliferation activity against Ba/F3 Exon20 insertion mutant cells of the compounds of the present disclosure is shown in Table 5.
Ba/F3 exon 20 insertion mutant cells are cell lines with SVD, NPH, ASV, and YVMA insertion mutations artificially constructed using mouse B cells, and it can be seen from Table 5 that the compounds of the present disclosure have better cellular anti-proliferation activity against the […] exon 20 insertion mutations such as SVD, NPH, ASV, and YVMA, and also show better anti-proliferation activity against common exon 20 insertion mutations such as SVD mutation.

Row | SMILES | disease control rate [1] | objective response rate [1] | GI50 [2]
1 | C=CC(=O)Nc1cc(Nc2ncc(C(=O)OC(C)C)c(-c3cn(C)c4ccccc34)n2)c(OC)cc1N(C)CCN(C)C [TAK788] | 86% | 43% | 
2 | C=CC(=O)Nc1cc(Nc2ncc(C(=O)OC(C)C)c(-c3cn(OCC)c4ccccc34)n2)c(OC)cc1N(C)CCN(C)C [Compound 2] |  |  | 0.027 µM
3 | C=CC(=O)Nc1cc(Nc2ncc(C(=O)OC(C)C)c(-c3cn(OC)c4c(C5CC5)cccc34)n2)c(OC)cc1N(C)CCN(C)C [Compound 5] |  |  | 0.058 µM
4 | C=CC(=O)Nc1cc(Nc2ncc(C(=O)OC(C)C)c(-c3cn(OC)c4c(Cl)cccc34)n2)c(OC)cc1N(C)CCN(C)C [Compound 4] |  |  | 0.033 µM
5 | C=CC(=O)Nc1cc(Nc2ncc(C(=O)OC(C)C)c(-c3cn(OC(C)C)c4ccccc34)n2)c(OC)cc1N(C)CCN(C)C [Compound 3] |  |  | 0.054 µM
